From patent US12377069B2, “Compounds, compositions, methods of using, and methods for preparing compounds” (UNIVERSITY OF LOUISVILLE RESEARCH FOUNDATION, INC., priority 2018, dated 2025)

Key:
Snail transgenic mice = assay: Scleroderma model in Snail transgenic mice; format: in vivo, mouse
Protocol: UAS03 attenuates Scleroderma associated vascular permeability in Snail transgenic mice. Calorimetric quantification of Evan's blue dye extracted from back skin using UV spectrophotometer. […] Animals treated with UAS03 show more than 3-fold reduction in the dye leakage (FIG. 24).
Expression for fibrosis associated genes in the back skin of the Snail transgenic mice. The mRNA levels of the Collagen 1 were measured in back skin using RT-qPCR. […] The expression in UAS03 treated group, in both males and females, were reduced. The levels were separately assessed in males and females in vehicle and drug treated animals (FIG. 25).

C57BL/6N mice = assay: Chronic ALD mouse model; format: in vivo; settings: 20 mg/kg orally every other day, 4 weeks
Protocol: FIG. 18: UAS03 mitigates chronic ALD. (A) C57BL/6 mice (10 wk old age) were used in chronic ALD models and analyzed after 4 weeks as described. Pair fed (n=5/group) and EtOH fed (n=10/group) mice were treated with Veh (0.25% CMC) and UAS03 (20 mg/kg) alternate day for 4 weeks. (B) Gross images of colons (C) colon lengths (D) In vivo permeability using FITC-Dextran was measured. (E) Serum ALT, AST, endotoxin, IL-6, TNF-α were measured using ELISA methods. (F) H&E sections (20×) of liver are shown. Scale bar is 100 μm. Fat droplets (white) are visible in EtOH group. (G) The levels of triglycerides (TGs), IL-6, TNF-α and myeloperoxidase (MPO) were measured in liver tissues. (H) Immunoblot of Ocln expression in ileum tissues (n=3) from mice fed with EtOH treated with Veh or UAS03. Error bars, ±SEM. Statistics were performed using 2way ANOVA multiple comparisons. * p<0.05, ** p<0.01, *** p<0.001.
Male C57BL/6N (10 week age old) were purchased from Jackson Laboratory and were acclimatized with pair fed liquid diet (Lieber DeCarli) for 1 week. After acclimatization, animals were fed with pair fed (n=5 mice/group) and alcohol diet (n=10 mice/group). Briefly, mice were fed with diet containing 17% of energy as protein, 40% as corn oil, 7.5% as carbohydrate, and 35.5% as either alcohol (5% v/w, alcohol-fed, AF) or isocaloric maltose dextrin (pair-fed, PF). Before mice went on to 5% alcohol diet, alcohol concentration was ramped from 1.6% (3 days) to 3.6% (3 days) and finally 5% for next 4 weeks. UAS03 group animals received UAS03 orally (20 mg/kg/day) on every other day after start of alcohol diet (FIG. 18A). We used 0.25% sodium carboxymethyl cellulose (CMC) as vehicle treatment. The mice were euthanized after 4 weeks and measured colon lengths (FIG. 18B-C), in vivo gut permeability (FITC-dextran assay), serum ALT, AST, endotoxin, IL-6 and TNF-α (FIG. 18E).

P-glycoprotein (P-gp) = P-glycoprotein (P-gp) (Homo sapiens, UniProt P08183)
From the text: Therefore, blocking its activity and/or downregulating the expression of BCRP, P-gp could reverse the effect and sensitize the cancer cells.

AhR^−/− mice = assay: Acute ALD model in AhR^−/− mice; format: in vivo, mouse; settings: 20 mg/kg at 2, 14 and 26 h
Protocol: FIG. 19: UroA treatment failed in AhR^−/− mice to protect against binge EtOH-induced ALD. C547BL/6 and AhR^−/− mice (n=4/group) were oral gavaged with alcohol (2.5 g/kg) at 0, 12 and 24 h. Mice were treated with Veh (0.25% CMC) or UroA (20 mg/kg) at 2, 14 and 26 h. Mice were euthanized at 32 h. The Fecal albumin was measured using standard ELISA. Serum endotoxin, TNF-α, ALT as well as liver ALT and TG levels using ELISA methods. Error bars, ±SEM. Statistics were performed using 2way ANOVA multiple comparisons. * p<0.05, ** p<0.01, *** p<0.001.
AhR has a role for UroA mediated protection in ALD model: To address the role of AhR expression for UroA mediated activities, we performed acute ALD models in C57BL/6J mice and AhR^−/− mice. In this experiment, mice (WT, AhR^−/− mice (n=4/group)) were treated with half the dose of EtOH (2.5 g/kg) at 0, 12 and 24 h followed by oral treatment Veh (0.25% CMC) or UroA (20 mg/kg) at 2, 14 and 26 h.

colon cancer cells = assay: Clonogenic and wound healing assays; format: cell-based

Chain of P-glycoprotein (P-gp) (P08183 whole entry): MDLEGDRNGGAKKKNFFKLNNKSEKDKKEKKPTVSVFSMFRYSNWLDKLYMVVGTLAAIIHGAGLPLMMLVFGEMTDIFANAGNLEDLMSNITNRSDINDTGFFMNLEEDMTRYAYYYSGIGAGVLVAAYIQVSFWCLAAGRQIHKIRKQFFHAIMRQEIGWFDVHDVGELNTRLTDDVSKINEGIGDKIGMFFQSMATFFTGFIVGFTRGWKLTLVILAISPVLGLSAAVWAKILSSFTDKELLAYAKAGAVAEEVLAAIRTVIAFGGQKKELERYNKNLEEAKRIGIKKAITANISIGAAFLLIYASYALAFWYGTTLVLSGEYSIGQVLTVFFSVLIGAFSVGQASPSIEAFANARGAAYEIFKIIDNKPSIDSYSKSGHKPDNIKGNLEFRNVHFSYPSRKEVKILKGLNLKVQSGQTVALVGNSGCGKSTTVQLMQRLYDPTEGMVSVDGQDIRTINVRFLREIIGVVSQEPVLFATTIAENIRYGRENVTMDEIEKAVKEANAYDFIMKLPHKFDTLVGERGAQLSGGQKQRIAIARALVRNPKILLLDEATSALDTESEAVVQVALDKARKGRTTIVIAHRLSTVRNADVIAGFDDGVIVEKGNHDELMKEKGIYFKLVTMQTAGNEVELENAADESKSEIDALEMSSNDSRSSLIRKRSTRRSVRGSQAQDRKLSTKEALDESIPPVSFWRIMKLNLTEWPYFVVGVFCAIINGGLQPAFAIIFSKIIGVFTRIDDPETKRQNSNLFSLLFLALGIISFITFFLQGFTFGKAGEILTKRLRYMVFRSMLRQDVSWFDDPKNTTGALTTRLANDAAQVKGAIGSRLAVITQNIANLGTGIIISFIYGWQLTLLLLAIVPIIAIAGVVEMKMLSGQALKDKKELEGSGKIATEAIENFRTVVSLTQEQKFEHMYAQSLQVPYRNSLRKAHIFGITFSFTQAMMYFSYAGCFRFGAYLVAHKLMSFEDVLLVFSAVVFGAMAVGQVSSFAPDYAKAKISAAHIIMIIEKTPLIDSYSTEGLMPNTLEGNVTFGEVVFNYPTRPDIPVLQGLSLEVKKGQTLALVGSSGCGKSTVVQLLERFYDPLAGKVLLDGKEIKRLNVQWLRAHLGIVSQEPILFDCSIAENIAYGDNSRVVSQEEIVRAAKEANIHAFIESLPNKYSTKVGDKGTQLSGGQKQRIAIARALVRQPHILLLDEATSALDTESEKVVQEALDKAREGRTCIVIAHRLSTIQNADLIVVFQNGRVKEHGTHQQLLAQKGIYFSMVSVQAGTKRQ

Compound	reduction in Evan's blue dye leakage in back skin (Snail transgenic mice; Snail transgenic mice)	Collagen 1 mRNA expression in back skin (Snail transgenic mice; males and females, RT-qPCR)	deterioration of Ocln in the gut (C57BL/6N mice)	liver fat deposition (histopathology) (C57BL/6N mice)	liver inflammation (IL-6, TNF-α, MPO) and TG levels (C57BL/6N mice)	drug efflux activity of P-glycoprotein (P-gp) (P-glycoprotein (P-gp))	efflux of Rh123 (P-glycoprotein (P-gp); 50 μM)	TG levels in AhR^−/− mice (AhR^−/− mice)	EtOH-induced gut leakage, serum endotoxins, TNF-α, ALT, liver ALT in AhR^−/− mice (AhR^−/− mice; EtOH 2.5 g/kg)	colon cancer cell colony formation (clonogenic assay) (colon cancer cells)	cell growth and migration into scratch (wound healing assay) (colon cancer cells; in combination with 5FU)
Oc1ccc2c(c1)COc1cc(O)ccc1-2 [UAS03, 6H-benzo[c]chromene-3,8-diol]	more than 3 fold	reduced	protected from deterioration of Ocln	reduced liver fat deposition	down regulated liver inflammation and TG levels						
O=c1oc2cc(O)ccc2c2ccc(O)cc12 [UroA, 3,8-dihydroxy-6H-dibenzo[b,d]pyran-6-one]						decreased drug efflux activities	blocked efflux of Rh123	down regulated TG levels	did not appear to rescue	reduced	inhibited cell growth and migration
